Experiments:
[1] = tested on: normal human control plasma; assay: activated partial thromboplastin time (aPTT) clotting assay
Experimental: The effect of the nanocomplexes on a physiologic coagulation pathway was tested using a standard activated partial thromboplastin time (aPTT) clotting assay, which is also used to monitor heparin levels of patients. This assay measures the amount of time needed for a plasma sample to form a clot in vitro when the contact pathway of coagulation is triggered by addition of an exogenous aPTT reagent. For the assay, varying concentrations of nanocomplexes or free heparin were added to 50 μl of APTT reagent (Thermo Scientific) at 37° C. for 3 minutes. Subsequently, 50 μl of 25 mM CaCl2 (Sigma) pre-incubated at 37° C. were added to samples and clotting was monitored via absorbance at 605 nm with a SpectraMAX Plus spectrophotometer ([…]).

mice = assay: Tail bleeding time after tail transection; format: in vivo; settings: 200 U/kg intravenously
Experimental: To assess the effect of nanocomplex administration on bleeding tail transection on mice was performed five minutes after they were treated intravenously with nanocomplexes. Specifically, mice (n=5-7 per condition) were anesthetized with isofluorane gas and administered nanocomplexes (200 U/kg, n=5), heparin (200 U/kg, n=7), or PBS control (n=5). After 5 minutes, 2 mm of distal mouse tail was removed by scalpel. Bleeding time was determined by lightly dabbing the tail with kimwipe tissues (Kimtech) until bleeding fully ceased for at least 1 minute. All experimental protocols involving animals were approved by the MIT Committee on Animal Care.

[2] = tested on: thromboplastin-induced model of pulmonary thromboembolism; assay: thromboplastin-induced model of pulmonary thromboembolism; format: in vivo; settings: mice
Experimental: To evaluate the ability of nanocomplexes to prevent thrombosis in vivo, a thromboplastin-induced model of pulmonary thromboembolism was utilized. […] For the pulmonary embolism assay, bovine fibrinogen (Sigma) was reacted with near-infrared fluorochromes (Vivotag-750-NHS, Perkin-Elmer) at a 2:1 fluorophore:protein molar ratio in PBS for 1 hour and purified by column centrifugation (100 kDa cutoff, Millipore) to remove unreacted fluorophores. Ampules of thromboplastin from rabbit brain (Sigma, #44213) were reconstituted with 2 mL of PBS each.
To ascertain the initial dosing ranges for the nanocomplexes, mice were dosed with thromboplastin and escalating doses of free heparin (40 U/kg, 100 U/kg and 200 U/kg heparin). Deposition of VT750-fibrin in the lungs of the mice was quantified using ex vivo infrared imaging. […] Accordingly, the dose of nanocomplexes corresponding to heparin doses of 200 U/kg was chosen for subsequent experiments.
Mice (n=5 per condition) were anesthetized with isofluorane gas and co-administered nanocomplexes (200 U/kg), free heparin (200 U/kg), or PBS control and 1 nmol of VT750-fibrinogen via tail vein injection. After 5 minutes, mice were injected with thromboplastin (2 uL/g). After 30 minutes, mice were euthanized with CO2 and the lungs were harvested and imaged on the LI-COR Odyssey Infrared Imaging System. Fibrin deposition was then quantified using ImageJ software. For histologic analysis, paraffin-embedded sections of lungs were prepared (Koch Institute Histology Core). Lungs were first fixed by incubating in 4% paraformaldehyde overnight. Hematoxylin and eosin […] staining of lung sections was used to visualize clots in the lungs.

[3] = tested on: thrombin generation in human plasma; assay: real-time thrombin generation assay in human plasma
Experimental: To further analyze the anticoagulant mechanism of the nanocomplexes, we performed real-time thrombin generation assays in human plasma. For this assay, varying concentrations of nanocomplexes or free heparin were added to 20 μL of control normal human plasma (Thermo Scientific). Real time thrombin generation was measured using the Technothrombin TGA kit (Technoclone) using the RD reagent according to manufacturer instructions. The fluorescence was monitored using a TECAN Infinite M200 Pro and thrombin generation was calculated using the corresponding Excel evaluation software provided by Technoclone.

- increase of mean bleeding time over PBS control (mice): greater than 280%
- mean bleeding time (mice; tail transection after 5 minutes): ~9.2 min
Substance: heparin [free heparin]
- aPTT clotting time ([1]; 0.4 U/mL): ~44 s
- aPTT clotting time relative to control ([1]; 0.4 U/mL): ~1.5 × of control
- aPTT clotting time ([1]; 0.8 U/mL): ~44 s
- aPTT clotting time relative to control ([1]; 0.8 U/mL): ~1.5 fold over control
- aPTT clotting time ([1]; 2 U/mL): ~136 s
- aPTT clotting time relative to control ([1]; 2 U/mL): ~5 fold over control
- aPTT clotting time relative to control ([1]; 2 U/mL, listed as heparin): ~5 x of control
- VT750-fibrin deposition in the lungs ([2]; 40 U/kg, with thromboplastin): did not significantly reduce
- VT750-fibrin deposition in the lungs ([2]; 100 U/kg, with thromboplastin): did not significantly reduce
- histological analysis of lung microvessels (hematoxylin and eosin) ([2]; 200 U/kg, thromboplastin 2 uL/g): largely patent
- reduction of VT750-fibrin deposition in the lungs ([2]; 200 U/kg, with thromboplastin): more than two-fold
- reduction of ETP ([3]; 1.6 U/mL): ~80%
- lag time (time to initial thrombin formation) ([3]; increasing concentrations): prolonged in a dose-dependent manner

From patent US20140364368A1, “STIMULUS RESPONSIVE NANOCOMPLEXES AND METHODS OF USE THEREOF” (MASSACHUSETTS INSTITUTE OF TECHNOLOGY, priority 2013, published 2014)
